Where two headings read alike, the source gives them in different places. Where a SMILES comes first, the peptide text is derived from it.
Key:
[1] = biological target: T1, fibrinogen fragment D (Homo sapiens, UniProt P02675+P02679); assay: SPR binding kinetics of knob 'A' peptides on immobilized fibrinogen fragment D; settings: for kon / koff: Langmuir 1:1 model; for kon: read-out: ka, association rate; for koff: read-out: kd, dissociation rate; for Kd: heterogeneous ligand model, KD = kd/ka
T1 construct: Fibrinogen fragment D, comprising the C-terminal polymerization pockets of fibrinogen (i.e. D-domain) without the N-terminal knobs; purchased Enzyme Research Laboratories FIB3
T1 sequence (P02679 89-432 limits assumed): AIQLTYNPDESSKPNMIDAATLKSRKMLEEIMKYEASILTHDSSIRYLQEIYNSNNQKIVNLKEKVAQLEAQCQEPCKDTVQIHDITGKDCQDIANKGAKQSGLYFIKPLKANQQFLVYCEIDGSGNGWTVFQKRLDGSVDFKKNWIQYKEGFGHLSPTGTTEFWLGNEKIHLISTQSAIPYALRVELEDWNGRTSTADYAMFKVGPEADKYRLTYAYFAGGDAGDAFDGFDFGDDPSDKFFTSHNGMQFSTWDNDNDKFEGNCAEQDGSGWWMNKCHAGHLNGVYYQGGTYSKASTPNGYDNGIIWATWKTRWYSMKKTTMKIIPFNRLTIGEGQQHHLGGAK
T1 sequence (P02675 164-491 limits assumed): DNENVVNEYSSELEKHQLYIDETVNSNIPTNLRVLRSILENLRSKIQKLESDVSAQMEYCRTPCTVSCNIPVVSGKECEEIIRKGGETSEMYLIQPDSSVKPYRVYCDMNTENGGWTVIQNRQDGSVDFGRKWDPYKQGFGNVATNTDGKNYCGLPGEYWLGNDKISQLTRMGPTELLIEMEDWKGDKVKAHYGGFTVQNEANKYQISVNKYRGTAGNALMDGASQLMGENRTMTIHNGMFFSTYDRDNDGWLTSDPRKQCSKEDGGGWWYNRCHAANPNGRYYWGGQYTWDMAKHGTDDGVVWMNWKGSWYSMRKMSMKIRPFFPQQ
T1 sequence (P02671 124-216 partner limits assumed): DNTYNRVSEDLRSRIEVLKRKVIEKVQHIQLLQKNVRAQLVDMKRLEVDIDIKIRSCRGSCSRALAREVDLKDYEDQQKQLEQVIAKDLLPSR
Method: Human fibrinogen (Enzyme Research Laboratories, South Bend, Ind.) at 2 mg/mL was digested with 0.1 U/mL human plasmin (ERL) in HEPES+CaCl2 buffer (150 mM NaCl, 5 mM CaCl2, 25 mM HEPES; pH 7.4) overnight at room temperature. Fragment D was isolated as previously described, with slight modifications (Kostelansky M S, et al. Biochemistry. 2002; 41(40):12124-12132). Briefly, the plasmin-digested fibrinogen and GPRPAA (SEQ ID NO:10) beads were incubated for 30 min, with occasional agitation. The unbound proteins and protein fragments were removed with excessive washing with HEPES+CaCl2 buffer. Fragment D was eluted with 1M sodium bromide and 50 mM sodium acetate (pH 5.3). Eluted samples were pooled together and exchanged back into HEPES+CaCl2 buffer using a centrifugal filter (MWCO 10,000). Fragment D was verified by SDS-PAGE and stored at −80° C. until use.
The Biacore 2000 (Biacore Lifesciences, GE Healthcare, Pittsburgh, Pa.) was used investigate kinetic binding constants (ka and kd) of knob ‘A’ peptide variants for fibrinogen fragment D. Briefly, fragment D was covalently immobilized to gold-coated SPR sensor chips via self-assembled monolayer (SAM) surface chemistry in order to generate a non-fouling surface with a controlled density of reactive carboxylic acid groups. Mixed SAMs were generated on gold-coated chips as described previously (Petrie T A, et al. Biomaterials. 2006; 27(31):5459-5470) by incubating with a 1 mM mixture of tri(ethylene glycol)-terminated alkanethiols (HS-(CH2)11—(OCH2CH2)3—OH; EG3; ProChimia, Poland) and carboxylic acid-terminated alkanethiols (HS-(CH2)11—(OCH2CH2)6—OCH2COOH; EG6-COOH) for 4 hrs. Upon loading the sensor chip into the Biacore 2000, the EG6-COOH in all four flow cells was activated by flowing 200 mM 1-ethyl-3-(3-dimethylaminopropyl) carbodiimide (EDC; Sigma Aldrich, St. Louis, Mo.) and 50 mM N-hydroxysuccinimide (NHS; Sigma Aldrich) (5 μL/min for 10 min). Immediately following activation, fragment D was immobilized in three flow cells (5 μL/min for 10 min) to achieve 1800-2000 resonance units (RU; 1RU˜1 pg/mm^2). Unreacted NHS groups were quenched in all four flow cells (three sample cells and one reference cell) with 20 mM ethanolamine ([…] for 10 min). Upon stabilization of the baseline signal, kinetic binding experiments were run in duplicate with the peptide variants as the flow analytes. Five varying concentrations for each peptide (0.94 μM to 150 μM) were flowed at 25 μL/min for 4 min immediately followed by a 10 min dissociation phase. Between each run, the surface was regenerated with 1M sodium bromide and 50 mM sodium acetate (pH 6.0). SPR experiments were performed three times with varying peptide injection order to rule out binding trends associated with injection sequence. Peptide solutions were incubated with tris(2-carboxyethyl)phosphine (TCEP) immobilized on agarose beads (Thermo Fisher Scientific, Inc; Rockland, Ill.) to ensure reduction of any disulfide bonds between C-terminal cysteines.
SPR sensorgrams were analyzed with the aid of Scrubber 2 and ClampXP software (Center for Biomolecular Interactions Analysis, University of Utah) (Morton T A, et al. Methods Enzymol. 1998; 295:268-294; Morton T A, et al. Anal Biochem. 1995; 227(1):176-185; Myszka D G, et al. Trends Biochem Sci. 1998; 23(4):149-150). Prior to analysis, all sensorgrams were inspected for abnormalities (i.e. baseline drift, air spikes, or irregular deviations) and excluded. Reference cell responses were subtracted from corresponding active response curves. Double-referenced curves were acquired by further subtracting the reference cell blank buffer injections from each reference-subtracted response curve (Myszka D G. Mol. Recognit. 1999; 12(5):279-284). All double-referenced curves were normalized by the molecular weight of each peptide and multiplied by 1000 to account for minor variations in response due to molecular weight. The resulting curves were then analyzed and fitted to the kinetic models. […]

[2] = biological target: T2, fibrinogen (Homo sapiens, UniProt P02675+P02679); assay: ELISA specificity assay: soluble Gxxx tetrapeptides competing with immobilized GPRP-FnIII9-10-C; format: binding; settings: tetrapeptide in 10^2- to 10^4-fold molar excess; one-hour pre-incubation
T2 sequence (P02679 27-437 isoform P02679-2 limits assumed): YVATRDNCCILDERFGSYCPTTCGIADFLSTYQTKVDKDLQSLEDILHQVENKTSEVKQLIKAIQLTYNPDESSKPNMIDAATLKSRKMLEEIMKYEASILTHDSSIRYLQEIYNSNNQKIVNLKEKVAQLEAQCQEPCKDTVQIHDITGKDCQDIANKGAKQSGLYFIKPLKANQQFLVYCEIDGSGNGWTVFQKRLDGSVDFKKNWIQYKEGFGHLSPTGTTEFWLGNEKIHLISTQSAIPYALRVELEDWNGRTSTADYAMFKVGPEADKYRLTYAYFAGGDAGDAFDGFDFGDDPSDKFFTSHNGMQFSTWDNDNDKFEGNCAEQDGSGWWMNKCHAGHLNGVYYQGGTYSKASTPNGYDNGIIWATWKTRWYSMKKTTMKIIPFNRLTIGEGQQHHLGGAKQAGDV
T2 sequence (P02675 31-491): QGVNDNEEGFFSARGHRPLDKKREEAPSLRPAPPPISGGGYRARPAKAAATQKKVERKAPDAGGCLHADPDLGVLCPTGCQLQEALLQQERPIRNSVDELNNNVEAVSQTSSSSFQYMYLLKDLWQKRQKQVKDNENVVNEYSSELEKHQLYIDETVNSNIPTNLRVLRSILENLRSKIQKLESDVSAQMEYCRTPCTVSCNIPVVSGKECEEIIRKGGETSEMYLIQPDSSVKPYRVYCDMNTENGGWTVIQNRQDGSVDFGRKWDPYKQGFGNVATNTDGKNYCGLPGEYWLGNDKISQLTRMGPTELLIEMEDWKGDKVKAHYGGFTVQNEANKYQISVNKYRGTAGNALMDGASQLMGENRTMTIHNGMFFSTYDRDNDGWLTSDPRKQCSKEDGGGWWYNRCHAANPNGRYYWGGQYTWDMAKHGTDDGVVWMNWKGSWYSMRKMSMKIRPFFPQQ
T2 sequence (P02671 20-629 partner limits assumed): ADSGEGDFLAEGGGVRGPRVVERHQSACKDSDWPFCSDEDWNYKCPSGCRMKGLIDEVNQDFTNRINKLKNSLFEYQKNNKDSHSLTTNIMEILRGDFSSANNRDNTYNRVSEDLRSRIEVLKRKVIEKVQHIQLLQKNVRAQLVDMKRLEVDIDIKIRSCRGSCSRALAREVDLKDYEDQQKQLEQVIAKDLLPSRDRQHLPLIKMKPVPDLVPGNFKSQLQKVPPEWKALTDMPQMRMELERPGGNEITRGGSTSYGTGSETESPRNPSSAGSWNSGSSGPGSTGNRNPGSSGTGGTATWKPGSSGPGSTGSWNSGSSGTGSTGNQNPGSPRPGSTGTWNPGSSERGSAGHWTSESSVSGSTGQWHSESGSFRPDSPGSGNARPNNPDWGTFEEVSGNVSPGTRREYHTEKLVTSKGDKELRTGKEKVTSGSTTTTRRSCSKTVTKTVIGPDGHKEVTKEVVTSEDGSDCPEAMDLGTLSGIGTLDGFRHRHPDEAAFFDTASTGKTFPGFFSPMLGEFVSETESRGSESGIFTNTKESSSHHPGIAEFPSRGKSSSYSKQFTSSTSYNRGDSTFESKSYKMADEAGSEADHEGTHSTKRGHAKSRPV
Method: A modified ELISA technique was used to establish the affinity of fibrinogen for the various Gxxx-FnIII9-10-C (SEQ ID NO:20) proteins covalently immobilized on maleimide-activated plates via their C-terminal cysteines. Sulfhydryl-containing proteins/peptides were added to pre-blocked maleimide-activated 96-well plates (Pierce, Thermo Scientific, Rockford, Ill.) at 10 μg/mL in conjugation buffer (CB) comprising 150 mM NaCl, 100 mM phosphate, 10 mM EDTA, pH 7.2, with attachment occurring via maleimide-sulfhydryl (thioether) linkages. TCEP (1 mM) was added to maintain sulfhydryl groups in the reduced form. Following, unreacted maleimide groups were quenched with 20 μg/mL cysteine in CB. Human fibrinogen (25 μg/mL) was incubated with the substrates and unbound protein removed by washing. Bound fibrinogen was detected using HRP-conjugated goat anti-fibrinogen antibody (MP Biomedicals #55239) and 1-Step™ Ultra TMB-ELISA (Pierce). The TMB reaction was quenched with 1 M H2SO4 before measuring the Abs450 nm using the SPECTRAMAX® M2 (Molecular Devices, Sunnyvale, Calif.). All intervening wash steps were conducted using washing buffer (WB) comprising 150 mM NaCl, 100 mM phosphate, 0.05% Tween-20, pH 7.2; all binding steps were conducted using binding buffer (BB) comprising PBS+1% BSA. For basic affinity assays, the concentration of the fusion proteins was varied. For specificity assays, varying concentrations of Gxxx (SEQ ID NO:20) tetrapeptides (Genscript, Piscataway, N.J.) were added to the fibrinogen solution during incubation with the covalently immobilized proteins.
The tetrapeptides GPRV (SEQ ID NO:2) and GHRP (SEQ ID NO:3) are also known to bind fibrinogen via knob:pocket interactions, albeit with reduced affinities (Laudano A P, et al. Biochemistry 1980, 19(5):1013-1019).

kon [1] [M⁻¹ s⁻¹]	koff [1] [s⁻¹]	Kd ([1]; site 1, read-out: KD1) [µM]	Kd ([1]; site 2, read-out: KD2) [µM]	competition with immobilized GPRP-FnIII9-10-C for binding to fibrinogen [2]	SPR binding response (in words) [1]	Compound
–	–	–	–	to a lesser extent as compared to GPRP	–	GPRV (listed as Homo sapiens)
1290 ± 30	0.00992 ± 0.00013	18.2	2.93	–	–	N=C(N)NCCC[C@H](NC(=O)[C@H](CCC(=O)O)NC(=O)[C@@H]1CCCN1C(=O)[C@@H]1CCCN1C(=O)[C@H](CCCNC(=N)N)NC(=O)[C@@H]1CCCN1C(=O)CN)C(=O)N[C@@H](CS)C(=O)O [GPRPPERC] (H-GPRPPERC-OH)
–	–	–	–	–	minimal binding response	GPSPAAC (listed as Homo sapiens) [reference compound]

Further lines, the compound ahead of its results:

Compound	kon [1] [M⁻¹ s⁻¹]	koff [1] [s⁻¹]	Kd ([1]; site 1, read-out: KD1) [µM]	Kd ([1]; site 2, read-out: KD2) [µM]	competition with immobilized GPRP-FnIII9-10-C for binding to fibrinogen [2]	SPR binding response (in words) [1]
C[C@H](NC(=O)[C@@H]1CCCN1C(=O)[C@H](Cc1ccccc1)NC(=O)[C@@H]1CCCN1C(=O)[C@H](CCCNC(=N)N)NC(=O)[C@@H]1CCCN1C(=O)CN)C(=O)N[C@@H](CS)C(=O)O [GPRPFPAC] (H-GPRPFPAC-OH)	12500 ± 260	0.00727 ± 8e-05	3.73	1.08	–	–
CC(C)[C@H](NC(=O)[C@H](CCCNC(=N)N)NC(=O)[C@@H]1CCCN1C(=O)CN)C(=O)N[C@H](C(=O)N[C@@H](C)C(=O)N[C@@H](C)C(=O)N[C@@H](CS)C(=O)O)C(C)C [GPRVVAAC] (H-GPRVVAAC-OH)	90 ± 1	0.01073 ± 4e-05	48.5	25	–	–
C[C@H](NC(=O)[C@H](C)NC(=O)[C@@H]1CCCN1C(=O)[C@H](CCCNC(=N)N)NC(=O)[C@@H]1CCCN1C(=O)CN)C(=O)N[C@@H](CS)C(=O)O [GPRPAAC] (H-GPRPAAC-OH)	1140 ± 30	0.0117 ± 0.00017	4.53	8.52	–	–
CC(C)[C@H](NC(=O)[C@H](CCCNC(=N)N)NC(=O)[C@@H]1CCCN1C(=O)CN)C(=O)N[C@H](C(=O)N[C@@H](CCC(=O)O)C(=O)N[C@@H](CCCNC(=N)N)C(=O)N[C@@H](CS)C(=O)O)C(C)C [GPRVVERC] (H-GPRVVERC-OH)	280 ± 4	0.02343 ± 0.00023	53.9	15.7	–	–
GHRP (listed as Homo sapiens)	–	–	–	–	not a significant competitor	–

— patent US8513380B2, “Peptides for binding fibrinogen and fibrin” (Georgia Tech Research Corporation, priority 2009, dated 2013)
